# Experimental data from patent US11185527B2, “Methods and compositions relating to steroid hormone receptor-dependent cancers” (Wayne State University, priority 2017, dated 2021).
# Columns and labels:
# [1] = biological target: binding of AR to ELK1 (Homo sapiens, UniProt P10275); test: SPR competition: inhibition of binding of AR (analyte) to immobilized ELK1; conditions: AR 200 nM as analyte
# [2] = test system: 22Rv1 human CRPC xenograft; test: 22Rv1 CRPC tumor xenograft in male SCID mice, tumor growth; conditions: KCI807 IP 250-300 mg/kg every other day; enzalutamide PO 50-60 mg/Kg daily; from day 3
# [3] = test system: PDX-PR011 tumor xenograft; test: PDX-PR011 patient-derived CRPC tumor xenograft in male SCID mice, tumor growth; assay type: in vivo, mouse; conditions: treatment from Day 1; KCI807 IP as for 22Rv1; enzalutamide oral 50 mg/Kg daily
# Experimental: FIG. 5B is a graph showing results obtained when PDX-PR011 tumor xenografts were implanted sc into male SCID mice in both flanks. The vehicle control and KCI807 were administered as described for FIG. 5A with the exception that treatment was begun on Day 1 after tumor implantation. Tumor volumes were monitored as described herein.
# FIG. 14 is a graph showing results obtained when PDX-PR011 tumor xenografts were implanted sc into male SCID mice in both flanks. […] Treatment was begun on Day 1 after tumor implantation.
# [4] = test system: activation of ELK1 by MEK/ERK; test: Gal4-ELK1 reporter activation by constitutively active MEK1 in transfected HeLa cells; assay type: cell-based; conditions: HeLa cells with caMEK1; trametinib 1 μM, KCI807 20 μM
# Experimental: FIG. 8 is a graph showing results of co-transfection of HeLa cells with the Gal4-TATA-Luc construct and the expression plasmid for the Gal4-ELK1 fusion protein. In addition the cells were transfected with an expression plasmid for a constitutively active MEK1 protein (caMEK1). The cells were then treated with the MEK1 inhibitor, trametinib (1 μM), KCI807 (20 μM), or vehicle (DMSO). Cells were harvested 48h post transfection and luciferase activity was measured. In all panels, the error bars represent standard deviation of experimental triplicates. *P<0.001
# Hela Cells were plated in a 24-well plate at a concentration of 75,000 cells/well in antibiotic-free red DMEM. The following day the cells were transfected with a total of 300 ng of plasmid DNA/well using Lipofectamine 2000. The cells were incubated for 24h then lysed using luciferase assay lysis buffer 5X from Promega. The luciferase activity of the cell lysates were measured using firefly substrate from Promega and a luminometer (Lumat LB9501, Berthold, Wildbad, Germany).
# As a secondary test of target selectivity, the effect of 5,3′-dihydroxyflavone on activation of ELK1 by MEK/ERK was examined using HeLa cells co-transfected with the Gal4-TATA-Luc construct, the expression plasmid for the Gal4-ELK1 fusion protein and either an expression plasmid for a constitutively active MEK1 protein (caMEK1) or vector control.
# [5] = test system: ELK1-dependent promoter activation by AR; test: Primary screening assay: luciferase reporter in recombinant HeLa cells (Gal4-TATA-Luc, Gal4-ELK1, AR) treated with testosterone; assay type: cell-based, human
# Excerpt: FIG. 6A is a schematic diagram of the reporter system for the primary screening assay. Recombinant HeLa cells used in this assay harbor the Gal4-TATA-Luc promoter-reporter, and stably express a Gal4-ELK1 fusion protein as well as the androgen receptor (AR). Gal4-ELK1 is bound to the Gal4 elements in the promoter. In the absence of testosterone (small circle), AR is localized in the cytoplasm. When testosterone is present it binds to AR causing AR to translocate to the nucleus where it then binds to Gal4-ELK1 and activates the downstream luciferase reporter.
# HeLa HLR cells obtained from Dr. Johann Hofman (Innsbruck Medical University), which were originally designed to serve as a cell-based assay system to measure modulation of MAPK activity. HeLa HLR cells have a stably integrated minimal promoter-luciferase reporter containing five upstream Gal4 elements (Gal4-TATA-Luc) and also constitutively express a Gal4-ELK1 fusion protein in which the Gal4 DNA binding domain is substituted for the ETS DNA binding domain of ELK1. In order to produce recombinant cell lines for high throughput screening and counter screening of small molecule libraries, HeLa HLR were stably transduced with a vector expressing the full-length AR. A sequence encoding the full length AR (SEQ ID NO:9) was subcloned from the pCMV expression vector (Origene) into the pCDH-CMV-MCS-EF1-Puro cDNA Cloning and Expression Vector (System Biosciences) at NheI (upstream) and BamHI (downstream) sites. The lentiviral vector expressing full length AR was then packaged in lentivirus and the HeLa HLR cells were infected as described below in the sub-section “Lentivirus-mediated-Transduction.” After 72 hours (h) of infection, 2 ug/mL of puromycin was added to the culture medium to select for the transduced cells. The cells were plated at low density for colony formation (20-40 colonies) in a 100 mm dish. Clonal cells were isolated using cloning cylinders from CORNING (Cat. #3166-8). The selected clones were further expanded and then tested for luciferase induction by testosterone. The clone that gave the greatest luciferase signal to noise ratio in response to testosterone treatment was then chosen for use in the primary screening assay for high throughput small molecule screening.
# For high throughput screening, recombinant primary screening cells were first depleted of hormone by growing them for 24h in medium in which the serum used was heat-inactivated and charcoal-stripped. The cells were then plated in 384-well white flat bottom plates (5,000 cells/well) (Corning Product #3570) using a Multidrop (Thermo Fisher Scientific, Waltham, Mass.). The plates were then incubated for 24h prior to adding test compounds. The following day test compounds from the LOPAC, Prestwick, or Maybridge Hitfinder libraries were added precisely in a 0.2 μL volume in the test wells using a Biomek FX liquid handler (Beckman Coutler, Break, Calif.) to achieve final media concentration of 10 μM of each test compound. Using the Multidrop (ThermoLab Systems, Helsinki, Finland), testosterone was added in addition to the test compounds to achieve a final media concentration of 10 nM. As the test compounds were re-constituted from powder stocks using dimethyl sulfoxide (DMSO) as the solvent, the final media concentration of DMSO was 0.4% v/v. For the assay negative control on each plate, one row of wells on each plate contained 10 nM testosterone and 0.4% v/v of DMSO. For the assay positive control on each plate, one row of wells on each plate contained 10 nM testosterone and 10 uM enzalutamide dissolved in DMSO (0.4% v/v of DMSO in the wells). The plates were incubated for 24h at 37° C. in 5% CO2. The medium was then aspirated leaving a residual volume 10 μl using an Elx 405-plate washer (Bio Tek U.S.). Then, 10 uL of the assay reagent Bright-Glo (Promega Corp., Madison Wis.) was added to each well. […]
# Chain of binding of AR to ELK1 (P10275 whole entry): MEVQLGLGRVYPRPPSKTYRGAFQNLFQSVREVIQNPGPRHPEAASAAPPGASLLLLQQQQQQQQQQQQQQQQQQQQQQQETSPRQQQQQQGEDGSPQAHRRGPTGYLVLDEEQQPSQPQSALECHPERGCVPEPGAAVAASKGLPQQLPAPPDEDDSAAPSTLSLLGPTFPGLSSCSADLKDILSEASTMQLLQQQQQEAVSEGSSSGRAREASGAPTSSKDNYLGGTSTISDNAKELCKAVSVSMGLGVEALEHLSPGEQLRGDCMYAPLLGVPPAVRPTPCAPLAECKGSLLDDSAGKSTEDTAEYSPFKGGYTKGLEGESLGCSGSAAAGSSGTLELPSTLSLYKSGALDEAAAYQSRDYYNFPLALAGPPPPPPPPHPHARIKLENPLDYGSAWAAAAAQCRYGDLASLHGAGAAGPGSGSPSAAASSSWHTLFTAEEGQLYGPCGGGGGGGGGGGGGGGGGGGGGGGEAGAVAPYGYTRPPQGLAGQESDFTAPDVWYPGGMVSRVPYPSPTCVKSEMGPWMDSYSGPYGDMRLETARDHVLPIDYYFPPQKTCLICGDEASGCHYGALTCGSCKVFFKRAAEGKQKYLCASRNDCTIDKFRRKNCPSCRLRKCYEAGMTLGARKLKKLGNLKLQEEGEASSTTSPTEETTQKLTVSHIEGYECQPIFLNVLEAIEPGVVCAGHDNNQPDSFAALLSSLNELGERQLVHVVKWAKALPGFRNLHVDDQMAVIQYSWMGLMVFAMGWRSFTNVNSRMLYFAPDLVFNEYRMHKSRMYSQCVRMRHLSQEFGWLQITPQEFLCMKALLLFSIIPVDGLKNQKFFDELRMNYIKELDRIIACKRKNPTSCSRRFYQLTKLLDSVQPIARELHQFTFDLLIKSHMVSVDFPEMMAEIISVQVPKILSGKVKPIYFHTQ
smiles,measurement,setting,value
"O=c1cc(-c2cccc(O)c2)oc2cccc(O)c12 [KCI807, 5,3′-dihydroxyflavone]",inhibition of binding of AR to immobilized ELK1,[1],blocked binding
same,"tumor growth inhibition, 22Rv1 xenograft",[2],inhibited
same,"tumor growth inhibition, PDX-PR011 xenograft",[3],significantly inhibited
same,inhibition of luciferase reporter activation by MEK1 (activation of ELK1 by MEK/ERK),[4],did not inhibit
CNC(=O)c1ccc(N2C(=S)N(c3ccc(C#N)c(C(F)(F)F)c3)C(=O)C2(C)C)cc1F [enzalutamide],inhibition of ELK1-dependent promoter activation by AR (in words),"[5]; testosterone-treated recombinant HeLa cells, luciferase",completely suppressed the signal
same,"tumor growth inhibition, PDX-PR011 xenograft",[3],not inhibited
"O=c1cc(-c2cc(O)cc(F)c2)oc2cccc(O)c12 [5′-fluoro-5,3′-dihydroxyflavone]",selectivity for ELK1-dependent versus ARE-dependent promoter activity,[5]; primary versus counter screening assay,more selective for the ELK1-dependent promoter activity than ARE-dependent activity
same,inhibition of luciferase reporter activation by MEK1 (activation of ELK1 by MEK/ERK),[4],did not affect
